# Measured values from the supplement of paper PMC10307832.
# Columns and labels:
# Experiment in all cases: relative viability (nuclei count vs DMSO), 5 days (fraction); higher = more cells survive
# KIN001-266 + Alpelisib = compound: CCN1CCC(CC1)N2C=C(N=N2)CNC3=CC4=C(C(=CN=C4C(=C3)Cl)C#N)NC5=CC(=C(C=C5)F)Cl [KIN001-266] + Cc1nc(NC(=O)N2CCC[C@H]2C(N)=O)sc1-c1ccnc(C(C)(C)C(F)(F)F)c1 [Alpelisib] (partner 2 µM)
# Outline: (§1)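 Relative viability is defined as nuclei in treated wells over nuclei in vehicle wells. Duplicate plates were run and medians reported. Lung cancer cell lines in 1536-well plates were dosed by pin tool one day after seeding, with one drug or with a fixed anchor-drug dose plus five library-drug doses (not always all listed) in √10 steps, and nuclei were counted after 5 days.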
# KIN001-266 + Linsitinib = compound: CCN1CCC(CC1)N2C=C(N=N2)CNC3=CC4=C(C(=CN=C4C(=C3)Cl)C#N)NC5=CC(=C(C=C5)F)Cl [KIN001-266] + C[C@]1(O)C[C@@H](c2nc(-c3ccc4ccc(-c5ccccc5)nc4c3)c3c(N)nccn32)C1 [Linsitinib] (partner 1 µM)
# Outline: as §1
# KIN001-266 + Navitoclax = compound: CCN1CCC(CC1)N2C=C(N=N2)CNC3=CC4=C(C(=CN=C4C(=C3)Cl)C#N)NC5=CC(=C(C=C5)F)Cl [KIN001-266] + CC1(C)CCC(c2ccc(Cl)cc2)=C(CN2CCN(c3ccc(C(=O)NS(=O)(=O)c4ccc(N[C@H](CCN5CCOCC5)CSc5ccccc5)c(S(=O)(=O)C(F)(F)F)c4)cc3)CC2)C1 [Navitoclax] (partner 0.5 µM)
# Outline: as §1
# KIN001-266 + Vorinostat = compound: CCN1CCC(CC1)N2C=C(N=N2)CNC3=CC4=C(C(=CN=C4C(=C3)Cl)C#N)NC5=CC(=C(C=C5)F)Cl [KIN001-266] + O=C(CCCCCCC(=O)Nc1ccccc1)NO [Vorinostat] (partner 1 µM)
# Outline: as §1
Cell Line,relative viability (KIN001-266 + Alpelisib; first compound 0.08 µM),relative viability (KIN001-266 + Alpelisib; first compound 0.253 µM),relative viability (KIN001-266 + Alpelisib; first compound 0.8 µM),relative viability (KIN001-266 + Alpelisib; first compound 2.53 µM),relative viability (KIN001-266 + Alpelisib; first compound 8 µM),relative viability (KIN001-266 + Linsitinib; first compound 0.08 µM),relative viability (KIN001-266 + Linsitinib; first compound 0.253 µM),relative viability (KIN001-266 + Linsitinib; first compound 0.8 µM),relative viability (KIN001-266 + Linsitinib; first compound 2.53 µM),relative viability (KIN001-266 + Linsitinib; first compound 8 µM),relative viability (KIN001-266 + Navitoclax; first compound 0.08 µM),relative viability (KIN001-266 + Navitoclax; first compound 0.253 µM),relative viability (KIN001-266 + Navitoclax; first compound 0.8 µM),relative viability (KIN001-266 + Navitoclax; first compound 2.53 µM),relative viability (KIN001-266 + Navitoclax; first compound 8 µM),relative viability (KIN001-266 + Vorinostat; first compound 0.08 µM),relative viability (KIN001-266 + Vorinostat; first compound 0.253 µM),relative viability (KIN001-266 + Vorinostat; first compound 0.8 µM),relative viability (KIN001-266 + Vorinostat; first compound 2.53 µM),relative viability (KIN001-266 + Vorinostat; first compound 8 µM)
EPLC-272H,1.05,0.874,0.938,0.842,0.74,1.26,1.34,0.842,1.15,1.16,1.16,1.42,0.966,1.11,0.763,0.417,0.662,0.621,0.429,0.384
UMC-11,0.927,0.931,1.11,0.952,0.604,0.944,1.01,1.08,0.981,1.09,0.3,0.319,0.38,0.355,0.278,0.334,0.421,0.431,0.411,0.44
NCI-H1993,0.664,0.682,0.692,0.642,0.634,0.714,0.657,0.828,0.687,0.797,1.15,0.96,0.855,0.731,0.681,0.959,0.604,0.685,0.713,0.471
NCI-H596,0.492,0.445,0.431,0.534,0.398,1.08,1.14,1.06,1.07,0.812,1.02,0.857,0.92,1,0.785,0.745,0.599,0.682,0.636,0.558
NCI-H1793,0.829,0.624,0.822,0.897,0.572,0.806,0.829,0.75,0.879,1.03,0.516,0.491,0.401,0.388,0.429,0.887,0.738,–,0.723,0.555
NCI-H1395,1.07,1.06,1.23,0.955,1.05,1.06,1.02,1.19,1.11,0.949,1.15,1.26,1.25,1.1,0.938,0.679,0.768,0.828,0.654,0.709
HCC-827,0.953,1.04,–,0.948,0.648,0.952,1.03,–,0.945,0.841,1.02,1.08,–,0.971,0.981,0.825,0.869,0.159,0.761,0.926
NCI-H2228,0.757,0.95,0.771,0.549,0.622,0.94,0.813,0.483,0.518,0.454,0.738,0.937,1.4,0.851,0.514,0.631,0.645,0.722,0.509,0.422
EMC-BAC-2,0.718,0.751,0.749,0.743,0.733,0.781,0.792,0.877,0.86,0.862,1.15,1.1,1.08,1.16,1.22,0.53,0.614,0.564,0.505,0.849
NCI-H23,0.768,0.646,0.733,0.663,0.695,0.626,0.604,0.591,0.691,0.55,0.835,0.876,0.762,0.962,0.719,0.7,0.523,0.667,0.584,0.551
RERF-LC-KJ,0.863,0.785,0.856,0.832,0.569,0.947,0.857,0.917,0.846,0.656,0.989,0.81,0.937,0.849,0.651,0.765,0.779,0.65,0.682,0.555
LC-2-ad,0.897,0.776,0.918,0.783,0.869,0.879,0.842,0.924,0.808,0.873,0.763,0.429,0.473,0.415,0.479,0.644,0.721,0.655,0.788,0.704
HCC-15,0.867,0.849,0.766,0.781,0.586,0.812,0.886,0.761,0.734,0.7,0.722,0.676,0.624,0.553,0.411,0.871,0.932,0.842,0.747,0.616
NCI-H2405,0.807,0.719,0.759,0.74,0.38,0.888,0.887,0.942,0.928,0.584,1.02,1,0.901,0.881,0.4,1.08,1.03,1.02,1.04,0.809
